Laboratory results published in patent EP3282019A1, “[…] TREATMENT OF CANCER, IN […] L[…]” (priority 2016, dated 2018).

Assays:
[1] = test system: NOTCH2 (N2^IC / Mastermind / CSL) transcription factor complex; assay: EMSA of DNA-bound NOTCH2 complexes in nuclear extracts of CLL cells; type: cell-based, human
Experimental: Preparation of nuclear extracts and EMSA: 3x10^7 cells were lysed in 1ml hypotonic buffer (10mM HEPES, pH 7.9; 1.5mM MgCl2; 10mM KCL) containing 0.15% NP-40 at 4°C for 10 min. The nuclear proteins were extracted from the nuclear fraction by resuspending the nuclei in 100µl extraction buffer (300mM KCl; 1.5mM MgCl2; 20mM HEPES pH 7.9; 0.2mM EDTA; 25% Glycerin) at 4°C for 20 min with constant agitation. The CSL site spanning EMSA probe was derived from the CD23a promoter (5'-[…]-3' (SEQ ID NO: 40) annealed with the reverse complementary strand). The N1^IC (bTAN 20) and N2^IC (C651.6DbHN) antibodies was obtained from the Developmental Studies Hybridoma Bank (University of Iowa, Department of Biological Science, Iowa City, IA). EMSA was performed essentially as described (Hubmann et al., 2010)

[2] = test system: NOTCH and apoptosis related genes; assay: semiquantitative RT-PCR of NOTCH and apoptosis related genes in CLL cells; type: cell-based, human; settings: for NOTCH3 expression / NR4A1 expression: Fig 3A, right panel
Excerpt: PCR, RT-PCR, and Western blot analysis: Total RNA was extracted using the Trizol isolation system (Invitrogen/Life Technologies, Paisley, UK). Genomic DNA (gDNA) was extracted using the Wizard Genomic DNA extraction kit from Promega. M-MLV reverse transcriptase and GoTaq PCR kits (Promega, WI, USA) were used for semiquantitative reverse transcriptase polymerase chain reactions (RT-PCR).
PCR and RT-PCR techniques (long range PCR using genomic DNA, semiquantitative RT-PCR), and western blotting (Modular Mini-Protean II system from Bio Rad) were used routinely according to standard protocols.

CLL cells [3] = assay: FACS detection of apoptosis (AnnexinV / propidium iodide) in CLL cells, PMA activation model; type: cell-based, human
Experimental: Cell lines and culture: CLL cells were cultured in RPMI 1640 medium containing 10% fetal calf serum, 100U/ml penicillin and […] streptomycin at 37 °C, 7.5% CO2 in humidified atmosphere. The ex vivo CLL microenvironment model based on using primary human bone marrow stromal cells in co-culture with CLL cells was applied as previously described and was used for analysing the effect of gliotoxin, RO4929097, and blocking antibodies on CLL cells in a milieu resembling the situation in vivo (Shehata et al., 2004). The PMA activation model was used to analyse the function of PKC stimulation on the regulation of NOTCH2/NOTCH3 signalling in CLL cells.
Flow cytometry (FACS) and detection of cell viability: Antibodies (CD5, CD19, CD20, CD23, CD49d, CD37, CD52, and 7-Aminoactinomycin D (7-AAD) were purchased from Becton Dickinson (San Jose, CA). Species- and isotype-matched irrelevant antibodies are used as controls. Flow cytometry was performed on a FACScan® using CellQuest Pro software version 5.2.1 (Becton Dickinson, San Jose, CA). Ultra high speed cell sorting was used to isolate CD5+/CD19+ CLL cells from normal B-cells (CD19+/CD5-) and T-cells (CD3+). AnnexinV, propidium iodide, and 7-AAD staining was performed to estimate the percentages of cells undergoing apoptosis. The overall effect on cell viability was calculated as the sum of early apoptotic (AnnexinV single positive; Ax+/PI-) and late apoptotic/necrotic (AnnexinV/propidium iodide double positive; Ax+/PI+) cells using a kit from Bender Med. Systems Inc. (Vienna, AT). Cell viability was evaluated by a nonisotopic MTT (3-(4,5-dimethylthiazolyl-2)-2,5-diphenyltetrazolium bromide) assay (Ez4U) in 96-well culture plates as described by the manufacturer (Biomedica, AT).

CLL cells [4] = assay: ex vivo CLL microenvironment model (co-culture with primary human bone marrow stromal cells)
[5] = chronic stimulation with PMA, after 3 days, CLL cells
[6] = RO4929097 0.5µM, PMA-activated CLL cells expressing a GSI resistant form of nuclear NOTCH2

Structure (SMILES): C[C@H](NC(=O)Cc1cc(F)cc(F)c1)C(=O)N[C@H](C(=O)OC(C)(C)C)c1ccccc1 [DAPT]
- nuclear NOTCH2 activity ([1]; 5µM DAPT, majority of CLL cases, Fig. 1A and B): no effect
- sensitivity of DNA-bound NOTCH2 complexes to GSI ([1]; majority of CLL cases, Fig. 2B): less sensitive/resistant

Structure (SMILES): CCCCCCCCCCCCCC(=O)O[C@@H]1[C@@H](C)[C@@]2(O)[C@@H](C=C(CO)C[C@]3(O)C(=O)C(C)=C[C@@H]23)[C@@H]2C(C)(C)[C@]12OC(C)=O [PMA]
- expression of all NOTCH ligands ([2]; PMA-activated CLL cells, Fig 2C, lane 4): downregulation
- NOTCH3 expression [2, 5]: upregulation
- NR4A1 expression [2, 5]: upregulation

Structure (SMILES): CC(C)(C(=O)NCC(F)(F)C(F)(F)F)C(=O)N[C@@H]1C(=O)Nc2ccccc2-c2ccccc21 [RO4929097]
- gliotoxin mediated apoptosis (CLL cells [3]; RO4929097 0.5µM with gliotoxin 0.2µM, PMA-activated CLL cells expressing a GSI resistant form of nuclear NOTCH2, Fig 3B): counteracts
- spontaneous apoptosis (CLL cells [3]; RO4929097 0.5µM, PMA-activated CLL cells expressing a GSI resistant form of nuclear NOTCH2, Fig 3B): counteracts
- NOTCH3 expression [2, 6]: inhibits
- NR4A1 expression [2, 6]: inhibits

Structure (SMILES): CN1C(=O)[C@]23CC4=CC=C[C@H](O)[C@H]4N2C(=O)[C@@]1(CO)SS3 [gliotoxin]
- NOTCH2 at the transcription factor level [1]: inhibits NOTCH2 at the transcription factor level
- NOTCH2 transactivation [1]: potent NOTCH2 transactivation inhibitor
- assembly of the ternary NOTCH2 (N2^IC / Mastermind / CSL) transcription factor complex on DNA [1]: interferes with the assembly
- apoptosis in CLL cells (CLL cells [3]): efficiently induced apoptosis
- protective effect of PMA on CLL cells (CLL cells [3]): reversed the protective effect of PMA
- NOTCH2 signalling [2]: rapidly inhibited
- NOTCH3 mRNA expression [2]: upregulated
- NR4A1 mRNA expression [2]: upregulated
- co-expression of NOTCH3 and its ligand JAG2 (unstimulated cells) or DLL1 (PMA activated cells) [2]: induced co-expression
- anti-apoptotic effect of bone marrow stromal cells (CLL cells [4]): could also overcome the anti-apoptotic effect
